The source of these data is the supplement of paper PMC10307832.

Holding throughout (test): relative viability (nuclei count vs DMSO), 5 days (fraction); higher = more cells survive
Compound in experiment [1]: CCN(CC)CCNC(=O)c1c(C)[nH]c(/C=C2\C(=O)Nc3ccc(F)cc32)c1C [Sunitinib] + CC(C)C[C@H](NC(=O)[C@H](Cc1ccccc1)NC(=O)c1cnccn1)B(O)O [Bortezomib] (partner 0.002 µM)
An outline of the steps: (§1)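 Relative viability is defined as nuclei in treated wells over nuclei in vehicle wells. Duplicate plates were run and medians reported. Lung cancer cell lines in 1536-well plates were dosed by pin tool one day after seeding, with one drug or with a fixed anchor-drug dose plus five library-drug doses (not always all listed) in √10 steps, and nuclei were counted after 5 days.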

Compound in experiment [2]: CCN(CC)CCNC(=O)c1c(C)[nH]c(/C=C2\C(=O)Nc3ccc(F)cc32)c1C [Sunitinib] + Cc1nc(Nc2ncc(C(=O)Nc3c(C)cccc3Cl)s2)cc(N2CCN(CCO)CC2)n1 [Dasatinib] (partner 0.075 µM)
An outline of the steps: as §1

Compound in experiment [3]: CCN(CC)CCNC(=O)c1c(C)[nH]c(/C=C2\C(=O)Nc3ccc(F)cc32)c1C [Sunitinib] + CC(=O)c1c(C)c2cnc(Nc3ccc(N4CCNCC4)cn3)nc2n(C2CCCC2)c1=O [Palbociclib] (partner 0.5 µM)
Put shortly:
as §1

Compound in experiment [4]: CCN(CC)CCNC(=O)c1c(C)[nH]c(/C=C2\C(=O)Nc3ccc(F)cc32)c1C [Sunitinib] + Cc1nc(NC(=O)N2CCC[C@H]2C(N)=O)sc1-c1ccnc(C(C)(C)C(F)(F)F)c1 [Alpelisib] (partner 2 µM)
An outline of the steps: as §1

Consider NCI-H2347, for which the relative viability is 0.853 in experiment [1] (first compound 0.02 µM); 1.21 in experiment [1] (first compound 0.06325 µM); 1.1 in experiment [1] (first compound 0.2 µM); 1.11 in experiment [1] (first compound 2 µM); 0.255 in experiment [2] (first compound 0.02 µM); 0.292 in experiment [2] (first compound 0.06325 µM). For the same cell line, the relative viability amounted to 0.302 in experiment [2] (first compound 0.2 µM); 0.257 in experiment [2] (first compound 0.6325 µM); 0.394 in experiment [2] (first compound 2 µM); 0.454 in experiment [3] (first compound 0.02 µM); 0.43 in experiment [3] (first compound 0.06325 µM); 0.453 in experiment [3] (first compound 0.2 µM). For the same cell line, the relative viability amounted to 0.422 in experiment [3] (first compound 0.6325 µM); 0.472 in experiment [3] (first compound 2 µM); 0.996 in experiment [4] (first compound 0.02 µM); 1.03 in experiment [4] (first compound 0.06325 µM); 1.13 in experiment [4] (first compound 0.2 µM); 1.09 in experiment [4] (first compound 0.6325 µM). Also, the relative viability in experiment [4] (first compound 2 µM) was found to be 0.947.

With HOP-62, the relative viability in experiment [1] (first compound 0.02 µM) amounted to 0.798; in experiment [1] (first compound 0.06325 µM), 0.83; in experiment [1] (first compound 0.2 µM), 0.947; in experiment [1] (first compound 0.6325 µM), 0.871; in experiment [1] (first compound 2 µM), 1.13; in experiment [2] (first compound 0.02 µM) it was 0.616. Moreover, the relative viability in experiment [2] (first compound 0.06325 µM) turned out to be 0.744; in experiment [2] (first compound 0.2 µM), 0.826; in experiment [2] (first compound 0.6325 µM) it was 0.777; in experiment [2] (first compound 2 µM), 0.682; in experiment [3] (first compound 0.02 µM), 0.381; in experiment [3] (first compound 0.06325 µM) it was 0.485. The relative viability in experiment [3] (first compound 0.2 µM) was 0.496; in experiment [3] (first compound 0.6325 µM) it was 0.427; in experiment [3] (first compound 2 µM), 0.533; in experiment [4] (first compound 0.02 µM), 0.964; in experiment [4] (first compound 0.06325 µM), 0.851; in experiment [4] (first compound 0.2 µM), 1.04. In addition, the relative viability in experiment [4] (first compound 0.6325 µM) came out at 1.05; in experiment [4] (first compound 2 µM), 0.919.

For the cell line NCI-H520, the relative viability in experiment [1] (first compound 0.02 µM) is 0.738; in experiment [1] (first compound 0.06325 µM), 0.785; in experiment [1] (first compound 0.2 µM) it was 0.638; in experiment [1] (first compound 0.6325 µM), 0.783; in experiment [1] (first compound 2 µM), 0.819; in experiment [2] (first compound 0.02 µM), 0.226. In addition, the relative viability in experiment [2] (first compound 0.06325 µM) was determined as 0.186; in experiment [2] (first compound 0.2 µM), 0.18; in experiment [2] (first compound 0.6325 µM), 0.224; in experiment [2] (first compound 2 µM) it was 0.217; in experiment [3] (first compound 0.02 µM), 0.237; in experiment [3] (first compound 0.06325 µM) it was 0.248. Further, the relative viability is 0.224 in experiment [3] (first compound 0.2 µM); 0.27 in experiment [3] (first compound 0.6325 µM); 0.267 in experiment [3] (first compound 2 µM); 1.01 in experiment [4] (first compound 0.02 µM); 0.841 in experiment [4] (first compound 0.06325 µM); 0.867 in experiment [4] (first compound 0.2 µM). Moreover, in experiment [4] (first compound 2 µM), the relative viability was found to be 0.729.

Turning to HCC-78, the relative viability in experiment [1] (first compound 0.02 µM) came to 0.508; in experiment [1] (first compound 0.06325 µM), 0.554; in experiment [1] (first compound 0.2 µM), 0.518; in experiment [1] (first compound 0.6325 µM), 0.464; in experiment [1] (first compound 2 µM), 0.494; in experiment [2] (first compound 0.02 µM), 0.39. Further, the relative viability was 0.313 in experiment [2] (first compound 0.06325 µM); 0.329 in experiment [2] (first compound 0.2 µM); 0.315 in experiment [2] (first compound 0.6325 µM); 0.358 in experiment [2] (first compound 2 µM); 0.486 in experiment [3] (first compound 0.02 µM); 0.504 in experiment [3] (first compound 0.06325 µM). The relative viability in experiment [3] (first compound 0.2 µM) amounted to 0.498; in experiment [3] (first compound 0.6325 µM) it was 0.472; in experiment [3] (first compound 2 µM), 0.526; in experiment [4] (first compound 0.02 µM) it was 0.364; in experiment [4] (first compound 0.2 µM), 0.321; in experiment [4] (first compound 2 µM) it was 0.419.
